Measured values taken from PubChem BioAssay (NCI).
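Assay format: 96-well plates, 48-hour exposure. TGI denotes the concentration required for complete inhibition of growth.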 Where a SMILES comes first, the peptide text is derived from it. The star is where a group is joined. Boc = CC(C)(C)OC(=O)*

Experiments:
Assay in all cases: NCI-60 cell line screen, 48 h
[1] = tested on: A549 NSCLC
[2] = tested on: CCRF-CEM leukemia
[3] = tested on: COLO 205 colon
[4] = tested on: EKVX NSCLC
[5] = tested on: HL-60(TB) leukemia
[6] = tested on: M14 melanoma
[7] = tested on: NCI-H522 lung
[8] = tested on: NCI/ADR-RES ovarian
[9] = tested on: OVCAR-4 ovarian
[10] = tested on: SF-268 CNS
[11] = tested on: SK-MEL-28 melanoma
[12] = tested on: SK-MEL-5 melanoma
[13] = tested on: SN12C renal
[14] = tested on: SNB-19 CNS
[15] = tested on: SR leukemia
[16] = tested on: T-47D breast
[17] = tested on: TK-10 renal
[18] = tested on: UACC-62 melanoma
[19] = tested on: LOX IMVI melanoma
[20] = tested on: MALME-3M melanoma

SMILES	TGI [1]	TGI [2]	TGI [3]	TGI [4]	TGI [5]	TGI [6]	TGI [7]	TGI [8]	TGI [9]	TGI [10]	TGI [11]	TGI [12]	TGI [13]	TGI [14]	TGI [15]	TGI [16]	TGI [17]	TGI [18]	TGI [19]	TGI [20]
CC1=NN(c2nc(N)nc(CCl)n2)CC1	> 100 µM	43.3 µM	36.3 µM	35.8 µM	40 µM	80.4 µM	4.91 µM	74.1 µM	32.2 µM	> 100 µM	56.4 µM	32.2 µM	> 100 µM	> 100 µM	61.7 µM	> 100 µM	> 100 µM	31 µM		
CC(NC(=O)C(NC(=O)OC(C)(C)C)C(C)C)C(=O)N1CCCC1C(=O)NCC(=O)NC(C(=O)NCC(=O)O)C(C)C (stereo unspecified) (Boc-VAPGVG-OH; configuration not given here)		> 100 µM	> 100 µM	> 100 µM	> 100 µM	> 100 µM	> 100 µM	> 100 µM	> 100 µM	> 100 µM	> 100 µM		> 100 µM	> 100 µM	> 100 µM	> 100 µM	> 100 µM	> 100 µM	> 100 µM	> 100 µM
O=C1/C(=C/C=C/c2ccccc2)N=C(c2ccccc2)N1C1Nc2cc3c(cc2S1)NC(N1C(=O)/C(=C/C=C/c2ccccc2)N=C1c1ccccc1)S3 (stereo unspecified)		> 100 µM		> 100 µM	> 100 µM	> 100 µM	28.8 µM	> 100 µM	> 100 µM	> 100 µM	> 100 µM	> 100 µM			27.8 µM	> 100 µM	> 100 µM		> 100 µM	
CSc1c(C(=O)Nc2ccc(Cl)cc2)c(N)nn1-c1ccccc1	> 100 µM	> 100 µM	> 100 µM	> 100 µM	> 100 µM	> 100 µM	> 100 µM	> 100 µM	> 23.8 µM	> 100 µM	> 100 µM	> 100 µM	> 100 µM	> 100 µM	> 100 µM	> 100 µM	> 100 µM	> 100 µM	> 100 µM	> 100 µM
CC1(c2ccc(F)cc2)CC(c2ccc(F)cc2)=C(C#N)C(=C(C#N)C#N)N1 (stereo unspecified)	41.7 µM	64.5 µM	27.9 µM	31.5 µM	30.7 µM	35.6 µM		48.4 µM	31.3 µM	37 µM	47.3 µM	28.5 µM	34.5 µM	35.1 µM	42.2 µM	31.7 µM	32.2 µM	28.1 µM	38.6 µM	37.2 µM
CC1CN=C(Nc2ccc(F)cc2F)S1 (stereo unspecified)	> 100 µM	> 100 µM	> 100 µM	> 100 µM	> 100 µM			> 100 µM	> 100 µM	> 100 µM	> 100 µM	> 100 µM	> 100 µM	> 100 µM	> 100 µM	> 100 µM	> 100 µM		> 100 µM	> 100 µM
CC1=NN(C(=O)CC(=O)Nc2ccccc2C)C(=O)C1N=Nc1ccc(C(=O)O)cc1 (stereo unspecified)	> 100 µM	> 100 µM	> 100 µM	> 100 µM	> 100 µM	> 100 µM	> 100 µM	> 100 µM	> 100 µM	> 100 µM	> 100 µM	> 100 µM	> 100 µM	> 100 µM	> 100 µM	> 100 µM	> 100 µM	> 100 µM	> 100 µM	> 100 µM
CSC1=C(C(=O)Nc2ccc(Cl)cc2)C(N)=NC1=O	> 100 µM	> 100 µM	> 100 µM	> 100 µM	> 100 µM	> 100 µM	> 100 µM	> 100 µM	> 100 µM	> 100 µM	> 100 µM	> 100 µM	> 100 µM	> 100 µM	> 100 µM	> 100 µM	> 100 µM	> 100 µM	> 100 µM	> 100 µM
COC(=O)/C=C/c1ccc2c(c1)CCC2	> 100 µM	> 100 µM		> 100 µM	73.6 µM	> 100 µM	> 100 µM	> 100 µM	> 100 µM	> 100 µM	> 100 µM	> 100 µM		> 100 µM	72.9 µM	> 100 µM	> 100 µM		> 100 µM	> 100 µM
Cc1ccc([N+](=O)[O-])c2c(NCCNC(=O)Cn3ccnc3[N+](=O)[O-])ccnc12	> 100 µM	> 100 µM	> 100 µM	> 100 µM	> 100 µM	> 100 µM	38 µM	> 100 µM	> 100 µM	> 100 µM	> 100 µM	> 100 µM	> 100 µM	> 100 µM	> 100 µM	> 100 µM	> 100 µM	> 100 µM	> 100 µM	89.1 µM
COc1cc(N=CN(C)C)c2ncccc2c1	> 100 µM	> 100 µM	> 100 µM	> 100 µM	> 100 µM	> 100 µM	> 100 µM	> 100 µM	> 100 µM	> 100 µM	> 100 µM	> 100 µM	> 100 µM	> 100 µM	19.3 µM	> 100 µM	> 100 µM	> 100 µM	> 100 µM	> 100 µM
CCOC(=O)c1ccc(Nc2nc3cc(C(F)(F)F)ccc3nc2-c2ccccc2)cc1	> 100 µM	> 100 µM	> 100 µM	> 100 µM	> 100 µM		> 100 µM	> 100 µM		> 100 µM	> 100 µM	> 100 µM	> 100 µM	> 100 µM	> 100 µM	91.6 µM	> 10 µM	29.4 µM	> 100 µM	> 100 µM
